Experimental data reported in publication PMC5698418 (Nature Communications, 2017).

How the values were obtained:
Arc protein = test: Western blot of total Arc protein in primary cortical neurons; format: cell-based, mouse; details: CGP 57380 5 µM co-treated 6 h with BDNF
Experimental: Forebrains of E16.5 C57BL/6 mouse embryos were dissected and then dissociated in trypsin solution for 15 min followed by three washes with phosphate-buffered saline (PBS). Single-cell suspension was achieved by gentle pipet trituration. Neurons were seeded in poly-L-lysine/laminin-coated six-well plates at a density of 2 × 10^6 per well and maintained in neurobasal medium containing B27 supplement (2%, Invitrogen, Grand Island, NY), penicillin (50 units ml^−1, Invitrogen), streptomycin (50 µg ml^−1, Invitrogen), and glutamine (1 mM, Sigma). For experiments involving BDNF (EMD Millipore Corps, Billerica, MA), the stock solution (2 ng µl^−1 in water) was added directly to the culture medium at a final concentration of 100 ng ml^−1 for the indicated period of time.
The following procedure was used to quantify western blots. First, equal quantity of protein lysate was analyzed by SDS–PAGE for each biological replicate. Second, the exposure time of the film to the ECL chemiluminescence was the same for each biological replicate. Third, all the exposed films were scanned on a Brother MFC-J485DW scanner in grayscale at a resolution of 300 dpi. Fourth, the look-up table (LUT) of the scanned tiff images was inverted and the intensity of each band was individually measured using the selection tool and the histogram function in Adobe Photoshop CC 2015 software. […]

eIF4E phosphorylation = test: Western blot of phospho-eIF4E in primary cortical neurons; format: cell-based, mouse; details: CGP 57380 5 µM co-treated 6 h with BDNF
Experimental: For western blot analyses, cells were collected by scraping in ice-cold radioimmunoprecipitation assay (RIPA) buffer (50 mM Tris-HCl (pH 8.0), 300 mM NaCl, 0.5% Igepal-630, 0.5% deoxycholic acid, 0.1% SDS, 1 mM EDTA) supplemented with a cocktail of protease inhibitors (Complete Protease Inhibitor without EDTA, Roche Applied Science, Indianapolis, IN) and phosphatase inhibitors (phosphatase inhibitor cocktail A, Santa Cruz Biotechnology). One volume of 2× Laemmli buffer (100 mM Tris-HCl (pH 6.8), 4% SDS, 0.15% bromophenol blue, 20% glycerol, 200 mM β-mercaptoethanol) was added and the extracts were boiled for 5 min. Samples were adjusted to an equal concentration after protein concentrations were determined using the BCA assay (Pierce, Thermo Fisher Scientific). Lysates were separated using SDS–PAGE and transferred to a nitrocellulose membrane. After transfer, the membrane was blocked in TBST (Tris-buffered saline + 0.1% Tween 20) supplemented with 5% nonfat powdered milk and probed with the indicated primary antibody at 4 °C overnight. After washing with TBST, the membrane was incubated with the appropriate secondary antibody and visualized using enhanced chemiluminescence (ECL) reagents according to the manufacturer’s guidelines (Pierce, Thermo Fisher Scientific). Uncropped scans with molecular weight reference are shown in Supplementary Figs. 10–20.

Nc1ncnc2n[nH]c(Nc3ccc(F)cc3)c12 [CGP 57380]
effect on BDNF-induced Arc expression (western blot) (Arc protein): did not prevent Arc expression | effect on eIF4E phosphorylation (eIF4E phosphorylation): impacting eukaryotic translation initiation factor 4E (eIF4E) phosphorylation
